Tests used:
[1] = molecular target: T1, human alpha4,beta,delta GABAA receptor subtype (Homo sapiens, UniProt P28472+P48169); experiment: Patch-clamp (Dynaflow system) current response in HEK-293 cells transfected with alpha4,beta3,delta GABAA receptor; assay type: cell-based
T1 construct: expressed in transfected cells; host or cells: HEK-293
Experimental: (§1) In these tests the protocol was optimized to be similar to the physiological conditions in the synaptic cleft.
(§2) Cell culture: HEK-293 cells, permanently transfected with the human alpha1,beta,gamma and alpha4,beta,delta GABAA receptor subtypes, were seeded at a density of 3×10^4/25 cm^2 in a culture flask. The transfected cells were used for patch-clamp experiments 3 days after seeding. When using the cells for patch-clamp experiments the cells were washed twice with oxygen-bubbled extra cellular (EC) solution (see below). About 5 mL EC was then added and the cells were kept in the incubator for about 15 minutes. After 15 minutes the cells came loose from the bottom of the flask and were separated by carefully sucking a couple of times with a Pasteur pipette.
(§3) Dynaflow™ system with Resolve chip was used for patch-clamp experiments: The electrophysiological recordings from HEK-293 cells were performed under voltage-clamp conditions using patch-clamp technique and the Dynaflow™ system (Dynaflow Pro II Platform Zeiss Axiovert 25; Cellectricon AB, Sweden) with Resolve chips as application system.
(§4) Patch pipettes were pulled from borosilicate glass and polished to a resistance 2-5 MΩ when filled with suitable intracellular solution (IC) (pH was adjusted to 7.2) and immersed in bath solution (extracellular, EC) (pH is adjusted to 7.4).
(§5) The recordings were made using an Axopatch 200B amplifier, a Digidata 1322A (Axon instruments, Foster city, USA). Data were analysed using the pCLAMP software sampled at 10 kHz, filtered at 2-10 kHz and analyzed with Clampfit (versions 9.0, both from Axon instruments, Foster city, USA). No higher series resistance than 20 MΩ between pipette and cell membrane was accepted. No series resistance compensation was used. The stability of series resistance was monitored repeatedly from the time course of capacitative transients during the experiments. The measured liquid-junction potential between EC and IC was subtracted in all data presented. All experiments were performed at room temperature (21-23° C.).
(§6) All steroids were dissolved to the concentration of 6 mM in DMSO. […] End solutions were the solutions added into the wells of the chip.
(§7) Electrophysiology: After compensating for the liquid junction potential a steady holding potential of −17 mV was used in all experiments. […] By using the holding potential of −17 mV and the intracellular solution with low chloride ion concentration the chloride ions flux into the cell when the receptors were activated.
The Dynaflow system allowed application of solutions for as short as 40 ms up to minutes in time. […] There was no difference in response between the second and the third GABA application. Therefore, the first GABA application was always repeated twice and the second response was used in the analysis.
Washout: GABA is quite soluble in water and easy to washout from the receptor. […] Steroids on the other hand were difficult to dissolve in water and also difficult to washout from the receptor. In the experiments, THDOC and 3alpha-OH-adiol were used as the positive GABAA receptor modulating steroids. With 2 minutes washout time, 200 nM THDOC and 3alpha-OH-adiol was completely washed out as shown by neither an accumulative nor a desensitization effect.
(§8) Different incubation times were studied to achieve the optimal time for attaining stable results and minimize the washout time.

[2] = intended doses; cited from earlier work
[3] = molecular target: T2, human alpha1,beta2,gamma2 Long GABAA receptor subtype (Homo sapiens, UniProt P14867+P47870); experiment: Patch-clamp (Dynaflow system) current response in HEK-293 cells transfected with alpha1,beta2,gamma2 Long GABAA receptor; assay type: cell-based
T2 construct: expressed in transfected cells; host or cells: HEK-293
Experimental: as §1, §2, §3, §4, §5, §6, §7
The Dynaflow system allowed application of solutions for as short as 40 ms up to minutes in time.
In the experiments, THDOC and 3alpha-OH-adiol were used as the positive GABAA receptor modulating steroids.
as §8
Study design: Studies were conducted on current response mediated by chloride ion flux through the GABAA receptor. […] The same patch-clamp technique was used as described above (Example 1) using the Dynaflow™ application system. THDOC was used as positive GABAA receptor modulating steroid as it has shorter washout time compared to allopregnanolone but works with the same mechanisms on the same GABAA receptor binding site as allopregnanolone.
HEK-293 cells, permanently transfected with cDNA expressing the human alpha1,beta2,gamma2 Long GABAA receptor subtype. The tissue culture and the handling of the cells were as described in Example 1. In the patch-clamp experiments the transfected cells were used minimum two passages after defrosting and 3 days after seeding. The cells were seeded for maximal 25 times.

female Wistar rats = experiment: Resident/intruder (R/I) test of estrus cycle-dependent tolerance/withdrawal symptoms; assay type: in vivo, rat; conditions: 1.5 mg/kg s.c. daily
Experimental: Experimental set-up: Experiments were carried out in female cycling rats. Rats have steroid variations related to ovulation similar to humans. […] The symptoms are related to the excitability changes in the brain that precedes withdrawal symptoms. Symptoms like migraine attacks and epileptic seizure(s) will arrive after a period of tolerance (Reddy & Rogawski 2009; Slawecki et al 2000, Welch K M. 2005). Symptoms in rats were investigated using a resident/intruder (R/I) test with behavioral analysis at the diestrus and the estrus phases of the estrus cycle (FIG. 3). The symptoms referred to in this Example are behavioral symptoms of withdrawal.
The frequency of behavioral symptom expression at diestrus and estrus during treatment were compared to the same behavior expression prior to treatment. The intruder rats were ovariectomized animals of the same age and size as the residents.
Animals: In total, 42 female Wistar rats (Taconics, Lille Skensved, Denmark) were used. At arrival the animals were approximately 9 weeks old and weighed 185-209 g. For identification, the rats were marked on their tails with permanent ink (PorciMark™). The animals were housed in triads at the animal facility where all experiments took place (Umea University, Umea, Sweden). A reversed light/dark cycle was used (12 h/12 h light/dark; lights off at 04:00). Food (standard chow) and water was available ad libitum. The rats were handled daily for two weeks prior to the start of testing. Nine rats were randomly selected as intruder rats and were ovariectomized. The remaining intact rats were tested for estrus cycle-dependent symptomatic behavior. The study protocol was approved by the Regional Ethics Committee of Umea, Sweden. All animal handling and experiments were performed according to Swedish legislation.
Ovariectomy of the intruder rats: Ovariectomy of the intruder rats was carried out by ligation of uterine tubes and removal of ovaries under anesthesia with 2.3% Isoflurane (Baxter Medical AB, Kista, Sweden) in oxygen (O2 flow rate 0.32 L/min). The surgical suture techniques included the use of surgical glue (Vetbond Tissue Adhesive No 1469 3M) in addition to sutures. Pain relief (Rimadyl Vet, 0.25 mg/100 g) was given daily for one week post-surgery.
Determination of estrus cycle phase: Estrus cycle phase (proestrus, estrus, metestrus and diestrus) of the rats was determined by microscope examination of vaginal smears. The smears were collected daily between 08:00 and 10:00, using a glass pipette with 50-70 μL normal saline (NaCl 0.9%), and stained with 0.2% toluidine blue. However, on the day of R/I test, the vaginal smear of a tested animal was collected immediately after the encounter. In addition, during the 3beta-hydroxy-5alpha-pregnan-20-one treatment, the smears were collected directly in the morning before injections to confirm expected estrus cycle phase. Diestrus (including metestrus) is characterized by the presence of leucocytes in smears. Both nucleated epithelial cells and cornified epithelial cells are present at diestrus but more abundantly at metestrus than at late diestrus. Estrus (including proestrus) is characterized by thick smears free from leucocytes but with abundant presence of nucleated epithelial cells (predominant in proestrus) and cornified epithelial cell (predominant at estrus). Further details are provided in Hubscher et al., 2005. […]

T2 sequence (P14867 28-456): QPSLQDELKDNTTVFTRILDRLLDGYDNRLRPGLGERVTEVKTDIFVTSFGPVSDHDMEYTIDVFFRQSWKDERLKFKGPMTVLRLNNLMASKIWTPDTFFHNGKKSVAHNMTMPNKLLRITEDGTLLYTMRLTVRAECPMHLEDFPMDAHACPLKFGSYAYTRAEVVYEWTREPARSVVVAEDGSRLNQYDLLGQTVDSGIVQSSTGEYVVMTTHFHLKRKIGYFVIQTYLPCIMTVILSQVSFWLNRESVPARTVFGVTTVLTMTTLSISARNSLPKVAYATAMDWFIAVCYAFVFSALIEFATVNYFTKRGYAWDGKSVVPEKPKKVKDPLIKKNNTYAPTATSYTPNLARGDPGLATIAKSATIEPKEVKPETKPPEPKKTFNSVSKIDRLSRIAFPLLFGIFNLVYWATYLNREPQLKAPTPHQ
T2 sequence (P47870 25-512 limits assumed): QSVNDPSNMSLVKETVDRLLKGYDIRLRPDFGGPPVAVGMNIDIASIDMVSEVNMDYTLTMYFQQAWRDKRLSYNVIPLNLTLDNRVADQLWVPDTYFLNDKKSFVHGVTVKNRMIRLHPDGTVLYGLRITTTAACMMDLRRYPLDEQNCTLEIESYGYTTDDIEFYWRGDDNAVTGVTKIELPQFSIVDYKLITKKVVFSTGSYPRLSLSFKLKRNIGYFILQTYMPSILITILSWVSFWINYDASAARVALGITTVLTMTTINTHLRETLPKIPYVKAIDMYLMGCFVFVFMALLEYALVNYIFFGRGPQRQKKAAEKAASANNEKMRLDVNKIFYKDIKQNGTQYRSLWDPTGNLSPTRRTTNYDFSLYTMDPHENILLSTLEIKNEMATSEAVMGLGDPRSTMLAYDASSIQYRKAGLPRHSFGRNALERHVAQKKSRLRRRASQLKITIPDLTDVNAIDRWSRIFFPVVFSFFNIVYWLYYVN
T2 sequence (P18507 40-475 partner): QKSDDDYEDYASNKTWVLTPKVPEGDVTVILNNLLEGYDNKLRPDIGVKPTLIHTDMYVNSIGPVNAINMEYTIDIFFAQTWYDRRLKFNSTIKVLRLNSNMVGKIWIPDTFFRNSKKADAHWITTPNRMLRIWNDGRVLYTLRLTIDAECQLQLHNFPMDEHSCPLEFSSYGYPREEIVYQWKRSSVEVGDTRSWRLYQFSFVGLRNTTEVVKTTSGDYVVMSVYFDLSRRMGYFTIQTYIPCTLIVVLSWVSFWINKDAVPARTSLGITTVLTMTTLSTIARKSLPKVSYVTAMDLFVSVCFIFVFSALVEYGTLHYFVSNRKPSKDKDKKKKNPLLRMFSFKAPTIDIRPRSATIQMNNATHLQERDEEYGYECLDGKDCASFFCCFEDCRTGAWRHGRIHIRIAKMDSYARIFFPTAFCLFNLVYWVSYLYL
T1 sequence (P48169 36-554): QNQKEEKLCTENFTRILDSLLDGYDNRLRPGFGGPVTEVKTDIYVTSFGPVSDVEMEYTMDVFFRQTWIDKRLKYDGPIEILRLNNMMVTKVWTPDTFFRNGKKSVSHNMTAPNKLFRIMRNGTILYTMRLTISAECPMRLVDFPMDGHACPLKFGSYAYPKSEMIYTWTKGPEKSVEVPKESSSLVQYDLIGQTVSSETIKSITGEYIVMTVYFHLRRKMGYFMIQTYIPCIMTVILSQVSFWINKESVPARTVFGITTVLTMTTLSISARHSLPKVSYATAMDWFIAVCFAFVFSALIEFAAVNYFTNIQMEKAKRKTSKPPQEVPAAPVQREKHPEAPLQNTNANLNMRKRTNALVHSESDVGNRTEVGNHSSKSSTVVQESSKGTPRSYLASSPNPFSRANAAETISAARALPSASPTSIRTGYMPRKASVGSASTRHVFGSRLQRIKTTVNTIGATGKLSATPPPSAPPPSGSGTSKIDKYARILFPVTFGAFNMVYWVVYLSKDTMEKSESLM
T1 sequence (P28472 26-473): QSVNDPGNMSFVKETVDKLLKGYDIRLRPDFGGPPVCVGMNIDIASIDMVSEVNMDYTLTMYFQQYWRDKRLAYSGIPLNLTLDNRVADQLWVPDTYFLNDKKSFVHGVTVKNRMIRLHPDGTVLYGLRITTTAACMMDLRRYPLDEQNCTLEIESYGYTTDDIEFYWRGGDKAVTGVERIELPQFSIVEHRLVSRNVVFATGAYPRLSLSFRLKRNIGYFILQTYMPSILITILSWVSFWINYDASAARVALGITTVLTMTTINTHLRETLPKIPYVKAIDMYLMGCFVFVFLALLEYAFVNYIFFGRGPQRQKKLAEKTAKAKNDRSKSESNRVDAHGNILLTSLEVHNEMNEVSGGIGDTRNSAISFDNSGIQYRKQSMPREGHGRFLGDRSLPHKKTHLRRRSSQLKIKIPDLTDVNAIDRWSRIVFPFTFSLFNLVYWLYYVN
T1 sequence (O14764 17-452 partner limits assumed): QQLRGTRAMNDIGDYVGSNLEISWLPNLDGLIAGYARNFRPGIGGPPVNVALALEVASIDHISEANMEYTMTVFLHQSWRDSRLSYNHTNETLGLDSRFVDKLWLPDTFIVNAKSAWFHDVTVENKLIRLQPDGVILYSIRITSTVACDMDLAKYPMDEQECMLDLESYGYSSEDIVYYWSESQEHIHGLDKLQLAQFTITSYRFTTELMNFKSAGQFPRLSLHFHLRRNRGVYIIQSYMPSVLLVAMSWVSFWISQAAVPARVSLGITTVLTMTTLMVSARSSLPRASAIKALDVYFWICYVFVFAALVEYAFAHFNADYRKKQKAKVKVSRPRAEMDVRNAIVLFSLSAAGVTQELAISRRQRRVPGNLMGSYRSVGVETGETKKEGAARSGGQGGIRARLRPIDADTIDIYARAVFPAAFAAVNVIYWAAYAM

CC(=O)[C@H]1CC[C@H]2[C@@H]3CC[C@H]4C[C@@H](O)CC[C@]4(C)[C@H]3CC[C@]12C [UC1010, 3beta-hydroxy-5alpha-pregnan-20-one]
The effect of 1 μM UC1010 on 0.6 μM Androstanediol + 3 μM GABA, Mean ± SEM % [1]: −18 ± 2.0%
The effect of 1 μM UC1010 on 0.8 μM Androstanediol + 3 μM GABA, Mean ± SEM % [1]: −22 ± 2.6%
Current response of compound by itself ([1]; 1 μM, no GABA, no THDOC): −0.4±0.3 pA
The effect of 1 μM UC1010 on 0.1 μM THDOC alone baseline, Mean ± SEM % ([1]; baseline shift without GABA): −43 ± 3.5%
The effect of 1 μM UC1010 on 3 μM GABA response, Mean ± SEM % ([1]; control, GABA alone): −6.7 ± 3.3%
The effect of 1 μM UC1010 on 0.1 μM THDOC + 3 μM GABA, Mean ± SEM % ([1]; steady state): −26 ± 2.4%
Safety in clinical studies [2]: shown safe
Imax/Emax Mean ± SEM %, antagonism of THDOC enhanced effect ([3]; 1 μM UC1010 + 30 μM GABA + 200 nM THDOC): −22.3±5.3%
Imax/Emax Mean ± SEM %, effect on GABA response ([3]; 1 μM UC1010 + 30 μM GABA, compared to GABA alone): +10.3 ± 7.8%
Emax ([3]; HEK293, 0.1-1 μM UC1010 + 30 μM GABA + 200 nM THDOC, concentration-dependent experiment, read-out: Imax/Emax, max antagonism of THDOC effect): -21 ± 4.6%
Emax at 1 µM ([3]; HEK293, read-out: Imax/Emax Mean ± SEM %, effect on GABA response, 1 μM UC1010 + 30 μM GABA, compared to GABA alone): 10.3%
The effect of 1 μM UC1010 on 8 μM Androstanediol + 30 μM GABA, Mean ± SEM % ([3]; steady state (phasic effect)): −30 ± 1.7%
The effect of 1 μM UC1010 on 8 μM Androstanediol, baseline shift, Mean ± SEM % ([3]; tonic effect): −33 ± 7.6%
Symptoms at diestrus during treatment in comparison to mean diestrus without treatment (female Wistar rats; 14 rats with symptoms): significantly decreased
Relative effect of treatment on symptomatic behavior at diestrus (female Wistar rats; baseline diestrus set to 100%, baseline estrus set to 0%, n=14): −89%
Estrus cycle duration or vaginal smear appearance during treatment (female Wistar rats; data not shown): did not change
Symptomatic behaviors at both diestrus phases when treated compared to diestrus at baseline (female Wistar rats; nine rats with symptoms in both cycles): less frequent
Effect size, Cohen's d (female Wistar rats; symptoms at diestrus): 1.67

— US20210161915A1, “GABA-A ANTAGONISTS FOR TREATING SUBSTANCE […]” (ASARINA PHARMA APS, priority 2018, published 2021)
